In ChEMBL document CHEMBL5696439 (Cancer Res, 2010):
Calls of active or inactive are those of the source. The calls are words filed in the database; no cut-off is given here.

Key:
[1] = biological target: RAC-beta serine/threonine-protein kinase (Homo sapiens) (UniProt P31751); experiment: Inhibition of recombinant human full-length His-tagged AKT2 expressed in insect cells at 2 uM using Ser/Thr 06 as substrate measured after 1 hr by Z'-LYTE assay relative to control; settings: Insect cell
A549 [2] = experiment: Antiproliferative activity against human A549 cells assessed as cell growth inhibition at 10 micromol/L incubated for 3 days by MTS assay relative to control; type: functional; settings: A549, 72 h, dose 10 µmol/L, time 3 day
[3] = biological target: Phosphatidylinositol 4,5-bisphosphate 3-kinase catalytic subunit gamma isoform (Homo sapiens, UniProt P48736); experiment: Inhibition of PI3Kgamma (unknown origin) using PIP2 as substrate measured after 15 to 30 mins by fluorescence polarization assay
A549 [4] = experiment: Antitumor activity against human A549 cells xenografted in female nude mouse model assessed as suppression in tumor growth at 50 mg/kg, po qd administered as 5 days on/2 days off regimen for 4 cycles relative to control; type: functional; settings: time 28 day
[5] = biological target: G protein-coupled receptor kinase 6 (Homo sapiens) (UniProt P43250); experiment: Inhibition of recombinant human full-length GST-tagged GRK6 expressed in insect cells at 2 uM using Ser/Thr 16 as substrate measured after 1 hr by Z'-LYTE assay relative to control; settings: Insect cell
[6] = biological target: Ribosomal protein S6 kinase alpha-1 (Homo sapiens) (UniProt Q15418); experiment: Inhibition of recombinant human full length His-tagged RPS6KA1 expressed in insect cells at 2 uM using Ser/Thr 06 as substrate measured after 1 hr by Z'-LYTE assay relative to control; settings: Insect cell
[7] = biological target: Serine/threonine-protein kinase D2 (Homo sapiens) (UniProt Q9BZL6); experiment: Inhibition of recombinant human full length GST-tagged PRKD2 expressed in insect cells at 2 uM using Ser/Thr 17 as substrate measured after 1 hr by Z'-LYTE assay relative to control; settings: Insect cell
[8] = biological target: Dual specificity protein kinase CLK1 (Homo sapiens) (UniProt P49759); experiment: Inhibition of recombinant human GST-tagged CLK1 (129-484 residues) expressed in E. coli at 2 uM using Ser/Thr 09 as substrate measured after 1 hr by Z'-LYTE assay relative to control
[9] = test system: RAF proto-oncogene serine/threonine-protein kinase (Homo sapiens), P04049 [Y340D,Y341D]; experiment: Inhibition of recombinant human GST-tagged RAF1 Y340D/Y341D double mutant (306-648 residues) expressed in insect cells at 2 uM using Ser/Thr 03 as substrate measured after 1 hr by Z'-LYTE assay relative to control; settings: Insect cell
NCI-H1975 [10] = experiment: Antiproliferative activity against human NCI-H1975 cells assessed as cell growth inhibition incubated for 24 hrs by MTS assay; type: functional, cell-based; settings: NCI-H1975, 24 h
786-0 = experiment: Antitumor activity against VHL null-human 786-0 cells xenografted in female nude mouse model assessed as suppression in tumor growth at 25 mg/kg, po qd administered as 5 days on/2 days off regimen for 4 cycles relative to control; type: functional; settings: time 28 day
[11] = biological target: Mitogen-activated protein kinase 9 (Homo sapiens) (UniProt P45984); experiment: Inhibition of recombinant human full length His-tagged MAPK9 expressed in baculovirus expression system at 2 uM using Ser/Thr 04 as substrate measured after 1 hr by Z'-LYTE assay relative to control
[12] = biological target: ALK tyrosine kinase receptor (Homo sapiens) (UniProt Q9UM73); experiment: Inhibition of recombinant human GST-tagged ALK (1058 to 1620 residues) expressed in insect cells at 2 uM using Tyr 01 as substrate measured after 1 hr by Z'-LYTE assay relative to control; settings: Insect cell
[13] = biological target: Tyrosine-protein kinase JAK1 (Homo sapiens) (UniProt P23458); experiment: Inhibition of recombinant human GST-tagged JAK1 (866-1154 residues) expressed in insect cells at 2 uM using Tyr 06 as substrate measured after 1 hr by Z'-LYTE assay relative to control; settings: Insect cell
A498 [14] = experiment: Antitumor activity against human A498 cells xenografted in female nude mouse model assessed as tumor regression at 50 mg/kg, po qd administered as 5 days on/2 days off regimen for 4 cycles; type: functional, organism-based; settings: time 28.0 day
mTORC2 (Homo sapiens) = mTORC2 (Homo sapiens) (UniProt P42345+Q6R327+Q9BVC4+Q9BPZ7); settings: PC3MM2, dose 0.1-1 µM, time 6.0 hrs
[15] = biological target: Receptor tyrosine-protein kinase erbB-2 (Homo sapiens) (UniProt P04626); experiment: Inhibition of recombinant human His-tagged ERBB2 (676-1255 residues) expressed in insect cells at 2 uM using Tyr 06 as substrate measured after 1 hr by Z'-LYTE assay relative to control; settings: Insect cell
MDA-MB-361 = experiment: Induction of apoptosis in PI3K/mTOR hyperactive human MDA-MB-361 cells assessed as cell death at 0.001 to 100 micromol/L incubated for 24 hrs by FACS analysis; type: functional, cell-based; settings: dose 0.001-100 µmol/L
[16] = biological target: Insulin-like growth factor 1 receptor (Homo sapiens) (UniProt P08069); experiment: Inhibition of recombinant human His-tagged IGF1R (960-1397 residues) expressed in baculovirus expression system at 2 uM using Tyr 01 as substrate measured after 1 hr by Z'-LYTE assay relative to control
A498 [17] = experiment: cells; settings: Homo sapiens, A498, 72 h
Description: Antiproliferative activity against human A498 cells assessed as cell growth inhibition incubated for 3 days by MTS assay

NCI-H1975 [18] = experiment: Antitumor activity against human NCI-H1975 cells xenografted in female nude mouse model assessed as survival at 10 mg/kg, po qd administered as 5 days on/2 days off regimen for 4 cycles; type: functional, organism-based; settings: time 28.0 day
[19] = biological target: Homeodomain-interacting protein kinase 4 (Homo sapiens) (UniProt Q8NE63); experiment: Inhibition of recombinant human full-length GST-tagged HIPK4 expressed in insect cells at 2 uM using Ser/Thr 18 as substrate measured after 1 hr by Z'-LYTE assay relative to control; settings: Insect cell
[20] = biological target: Serine/threonine-protein kinase Sgk2 (Homo sapiens) (UniProt Q9HBY8); experiment: Inhibition of recombinant human GST-tagged SGK2 (54-427 residues) expressed in insect cells at 2 uM using Ser/Thr 06 as substrate measured after 1 hr by Z'-LYTE assay relative to control; settings: Insect cell
[21] = biological target: Serine/threonine-protein kinase mTOR (Homo sapiens, UniProt P42345); experiment: Inhibition of human full-length Flag-tagged mTOR expressed in HEK293 cells using His6-S6K as substrate measured after 2 hrs in presence of ATP by DELFIA
[22] = biological target: Cyclin-dependent kinase 5/CDK5 activator 1 (Homo sapiens) (UniProt Q00535+Q15078); experiment: Inhibition of recombinant human full-length GST/His-tagged CDK5/p35 expressed in insect cells at 2 uM using Ser/Thr 12 as substrate measured after 1 hr by Z'-LYTE assay relative to control; settings: Insect cell
[23] = test system: Tyrosine-protein kinase ABL1 (Homo sapiens), P00519 [E255K]; experiment: Inhibition of recombinant human full-length His-tagged ABL1 E255K mutant expressed in insect cells at 2 uM using Tyr 02 as substrate measured after 1 hr by Z'-LYTE assay relative to control; settings: Insect cell
Tyrosine-protein kinase ABL1 (Homo sapiens), P00519 [E255K], sequence (P00519 whole entry E255K): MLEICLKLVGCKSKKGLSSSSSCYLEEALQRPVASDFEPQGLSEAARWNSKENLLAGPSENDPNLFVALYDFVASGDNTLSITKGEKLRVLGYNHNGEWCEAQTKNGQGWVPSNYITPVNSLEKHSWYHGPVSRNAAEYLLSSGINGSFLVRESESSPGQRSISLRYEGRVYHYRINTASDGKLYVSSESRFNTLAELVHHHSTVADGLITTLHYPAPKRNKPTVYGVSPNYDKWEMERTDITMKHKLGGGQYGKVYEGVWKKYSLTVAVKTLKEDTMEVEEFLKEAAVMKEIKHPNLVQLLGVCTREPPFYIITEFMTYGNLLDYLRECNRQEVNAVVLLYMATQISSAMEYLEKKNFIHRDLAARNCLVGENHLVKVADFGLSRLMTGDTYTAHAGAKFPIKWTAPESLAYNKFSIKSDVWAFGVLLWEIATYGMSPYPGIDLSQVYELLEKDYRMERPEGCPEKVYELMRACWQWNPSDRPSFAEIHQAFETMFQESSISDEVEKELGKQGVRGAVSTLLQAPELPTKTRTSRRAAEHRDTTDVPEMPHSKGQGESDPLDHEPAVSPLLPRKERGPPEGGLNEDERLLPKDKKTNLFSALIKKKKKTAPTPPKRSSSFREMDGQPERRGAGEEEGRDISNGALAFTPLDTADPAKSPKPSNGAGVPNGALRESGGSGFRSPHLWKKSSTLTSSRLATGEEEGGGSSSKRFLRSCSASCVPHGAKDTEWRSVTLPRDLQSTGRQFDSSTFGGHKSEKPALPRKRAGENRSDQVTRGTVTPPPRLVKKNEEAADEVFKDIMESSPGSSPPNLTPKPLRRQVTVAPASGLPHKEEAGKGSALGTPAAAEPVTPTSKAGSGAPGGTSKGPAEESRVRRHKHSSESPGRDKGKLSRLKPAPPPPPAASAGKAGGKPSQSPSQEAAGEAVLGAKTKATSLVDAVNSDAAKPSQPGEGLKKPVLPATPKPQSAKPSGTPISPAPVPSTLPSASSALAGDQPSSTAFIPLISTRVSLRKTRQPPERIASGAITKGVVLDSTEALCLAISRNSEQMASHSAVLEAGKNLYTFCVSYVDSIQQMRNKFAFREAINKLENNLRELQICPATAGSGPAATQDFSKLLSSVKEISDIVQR

Receptor tyrosine-protein kinase erbB-2 (Homo sapiens), sequence (P04626 whole entry, the tested form may be a part): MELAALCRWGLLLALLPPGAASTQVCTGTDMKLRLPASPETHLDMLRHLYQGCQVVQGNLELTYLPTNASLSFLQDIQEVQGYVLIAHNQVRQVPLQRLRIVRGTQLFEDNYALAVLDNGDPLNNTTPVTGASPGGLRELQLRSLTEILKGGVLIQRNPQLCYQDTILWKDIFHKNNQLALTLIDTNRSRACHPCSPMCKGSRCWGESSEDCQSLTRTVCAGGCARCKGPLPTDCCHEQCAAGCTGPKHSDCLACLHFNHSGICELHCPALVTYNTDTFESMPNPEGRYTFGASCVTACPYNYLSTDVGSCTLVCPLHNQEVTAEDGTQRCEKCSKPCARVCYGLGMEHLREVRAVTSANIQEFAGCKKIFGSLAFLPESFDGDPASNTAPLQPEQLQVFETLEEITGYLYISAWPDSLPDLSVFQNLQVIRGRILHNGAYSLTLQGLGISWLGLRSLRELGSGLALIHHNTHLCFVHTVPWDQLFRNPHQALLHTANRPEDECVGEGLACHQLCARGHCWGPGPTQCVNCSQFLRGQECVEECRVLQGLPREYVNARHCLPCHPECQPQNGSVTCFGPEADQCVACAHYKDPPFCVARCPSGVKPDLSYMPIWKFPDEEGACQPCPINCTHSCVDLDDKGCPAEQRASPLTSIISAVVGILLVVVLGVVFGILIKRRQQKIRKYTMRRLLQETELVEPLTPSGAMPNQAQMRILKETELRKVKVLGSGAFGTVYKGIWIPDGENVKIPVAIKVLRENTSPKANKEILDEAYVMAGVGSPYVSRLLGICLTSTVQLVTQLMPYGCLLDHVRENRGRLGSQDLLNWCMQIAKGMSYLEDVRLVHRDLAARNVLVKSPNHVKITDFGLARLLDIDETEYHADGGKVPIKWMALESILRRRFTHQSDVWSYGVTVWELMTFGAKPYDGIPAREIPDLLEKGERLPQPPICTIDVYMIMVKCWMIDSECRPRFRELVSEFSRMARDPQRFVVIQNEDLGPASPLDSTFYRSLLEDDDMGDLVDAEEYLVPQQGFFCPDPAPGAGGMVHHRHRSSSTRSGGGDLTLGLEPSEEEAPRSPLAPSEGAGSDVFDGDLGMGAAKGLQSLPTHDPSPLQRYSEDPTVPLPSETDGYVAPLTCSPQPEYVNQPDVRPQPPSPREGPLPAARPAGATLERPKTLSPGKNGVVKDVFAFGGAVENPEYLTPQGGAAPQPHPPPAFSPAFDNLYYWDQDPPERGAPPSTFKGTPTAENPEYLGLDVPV
Cyclin-dependent kinase 5/CDK5 activator 1 (Homo sapiens), sequence (Q00535 whole entry): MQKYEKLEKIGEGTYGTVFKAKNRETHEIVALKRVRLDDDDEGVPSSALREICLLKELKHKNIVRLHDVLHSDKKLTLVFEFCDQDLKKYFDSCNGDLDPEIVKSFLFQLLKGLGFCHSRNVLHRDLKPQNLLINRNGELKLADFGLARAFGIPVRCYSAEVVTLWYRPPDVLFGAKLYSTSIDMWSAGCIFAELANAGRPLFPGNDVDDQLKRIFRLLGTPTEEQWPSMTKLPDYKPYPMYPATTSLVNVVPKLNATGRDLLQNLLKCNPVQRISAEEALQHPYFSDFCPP
Cyclin-dependent kinase 5/CDK5 activator 1 (Homo sapiens), sequence (Q15078 99-307 partner limits assumed): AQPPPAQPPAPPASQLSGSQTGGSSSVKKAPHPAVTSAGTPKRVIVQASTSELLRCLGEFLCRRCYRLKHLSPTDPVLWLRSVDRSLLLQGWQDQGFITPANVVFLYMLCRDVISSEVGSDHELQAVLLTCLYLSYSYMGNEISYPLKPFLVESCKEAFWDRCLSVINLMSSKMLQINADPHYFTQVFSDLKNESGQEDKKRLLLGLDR
Phosphatidylinositol 4,5-bisphosphate 3-kinase catalytic subunit gamma isoform, sequence (P48736 whole entry, canonical isoform): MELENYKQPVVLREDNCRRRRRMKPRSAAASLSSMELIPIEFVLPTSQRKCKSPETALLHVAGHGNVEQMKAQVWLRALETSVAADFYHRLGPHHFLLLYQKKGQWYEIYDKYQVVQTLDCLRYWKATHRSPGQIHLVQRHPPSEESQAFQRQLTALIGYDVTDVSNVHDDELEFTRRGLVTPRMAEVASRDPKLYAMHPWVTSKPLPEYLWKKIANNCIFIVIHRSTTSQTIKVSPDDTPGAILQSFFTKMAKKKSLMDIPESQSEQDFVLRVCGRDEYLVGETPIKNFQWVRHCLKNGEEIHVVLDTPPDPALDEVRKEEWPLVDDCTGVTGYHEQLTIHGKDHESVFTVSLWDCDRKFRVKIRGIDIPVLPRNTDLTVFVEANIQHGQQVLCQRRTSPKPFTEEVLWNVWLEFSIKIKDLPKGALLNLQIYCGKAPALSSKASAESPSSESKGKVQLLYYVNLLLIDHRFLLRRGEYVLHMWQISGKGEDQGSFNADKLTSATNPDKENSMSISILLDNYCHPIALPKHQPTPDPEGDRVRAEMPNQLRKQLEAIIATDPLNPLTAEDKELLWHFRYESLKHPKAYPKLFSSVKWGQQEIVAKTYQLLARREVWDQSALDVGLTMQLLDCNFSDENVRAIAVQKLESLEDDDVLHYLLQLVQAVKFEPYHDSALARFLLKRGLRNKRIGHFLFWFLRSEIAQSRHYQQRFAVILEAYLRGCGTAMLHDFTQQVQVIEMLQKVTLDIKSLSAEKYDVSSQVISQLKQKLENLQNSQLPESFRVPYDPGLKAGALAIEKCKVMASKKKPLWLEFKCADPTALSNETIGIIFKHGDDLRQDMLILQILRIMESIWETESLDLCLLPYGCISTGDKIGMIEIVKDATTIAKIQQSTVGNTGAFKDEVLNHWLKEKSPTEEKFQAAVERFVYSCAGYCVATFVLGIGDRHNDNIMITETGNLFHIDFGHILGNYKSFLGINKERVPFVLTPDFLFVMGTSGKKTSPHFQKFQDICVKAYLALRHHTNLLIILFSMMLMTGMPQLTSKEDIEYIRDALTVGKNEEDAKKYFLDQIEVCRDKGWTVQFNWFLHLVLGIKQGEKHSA
Ribosomal protein S6 kinase alpha-1 (Homo sapiens), sequence (Q15418 whole entry): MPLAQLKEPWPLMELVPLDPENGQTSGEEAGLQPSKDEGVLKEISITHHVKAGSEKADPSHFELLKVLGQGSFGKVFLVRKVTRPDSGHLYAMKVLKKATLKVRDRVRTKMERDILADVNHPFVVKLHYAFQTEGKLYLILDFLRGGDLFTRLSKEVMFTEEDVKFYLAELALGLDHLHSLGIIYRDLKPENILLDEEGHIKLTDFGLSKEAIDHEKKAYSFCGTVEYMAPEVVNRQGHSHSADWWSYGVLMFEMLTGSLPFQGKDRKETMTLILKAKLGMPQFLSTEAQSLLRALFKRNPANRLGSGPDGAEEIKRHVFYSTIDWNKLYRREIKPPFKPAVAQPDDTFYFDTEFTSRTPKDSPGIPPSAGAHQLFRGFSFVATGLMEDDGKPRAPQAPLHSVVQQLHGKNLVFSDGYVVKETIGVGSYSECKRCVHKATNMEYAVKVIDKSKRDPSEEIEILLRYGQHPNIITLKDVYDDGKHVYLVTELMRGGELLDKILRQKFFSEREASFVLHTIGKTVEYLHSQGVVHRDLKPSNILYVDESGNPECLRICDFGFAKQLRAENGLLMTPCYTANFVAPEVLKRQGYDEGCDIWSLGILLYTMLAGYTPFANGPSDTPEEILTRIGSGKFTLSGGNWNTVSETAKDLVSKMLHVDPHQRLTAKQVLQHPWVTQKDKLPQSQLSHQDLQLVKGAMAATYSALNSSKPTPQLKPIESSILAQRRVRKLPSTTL

How did the inhibition [1] turn out when CNC(=O)Nc1ccc(-c2nc(N3CC4CCC(C3)O4)c3cnn(C4CCC5(CC4)OCCO5)c3n2)cc1 was run?
The inhibition was 5%.

And the inhibition at 10 µM (A549 [2])?
The inhibition at 10 µM was 100%.

And the IC50 [3]?
The IC50 was > 10000 nM.

What about the Activity (A549 [4]) of the same molecule?
The Activity was 100%.

What about the inhibition [5] of the same molecule?
Its inhibition is -1%.

What about the inhibition [6] of the same molecule?
The inhibition was 4%.

And the inhibition [7]?
Its inhibition is 1%.

What about the inhibition [8] of the same molecule?
The inhibition was -3%.

What about the inhibition [9] of the same molecule?
The inhibition was 12%.

What about the IC50 (NCI-H1975 [10]) of the same molecule?
Its IC50 is 70 nM.

And the Activity (786-0)?
The Activity was 100%.

What about the inhibition [11] of the same molecule?
Its inhibition is 11%.

What about the inhibition [12] of the same molecule?
Its inhibition is 0%.

What about the inhibition [13] of the same molecule?
Its inhibition is 5%.

What about the Activity (A498 [14]) of the same molecule?
The Activity was “Active”.

And the inhibition (mTORC2 (Homo sapiens))?
The inhibition was “inactive”.

And the inhibition [15]?
Its inhibition is 0%.

And the Activity (MDA-MB-361)?
The Activity was “Active”.

And the inhibition [16]?
Its inhibition is 1%.

What about the IC50 (A498 [17]) of the same molecule?
The IC50 was 100 nM.

And the Activity (NCI-H1975 [18])?
Its Activity is “Active”.

What about the inhibition [19] of the same molecule?
Its inhibition is 7%.

What about the inhibition [20] of the same molecule?
The inhibition was 5%.

What about the IC50 [21] of the same molecule?
The IC50 was 0.19 nM.

What about the inhibition [22] of the same molecule?
The inhibition was -4%.

What about the inhibition [23] of the same molecule?
The inhibition was 5%.
